Results taken from PubChem BioAssay (NCI).
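Briefly, cells in 96-well plates were exposed to five compound concentrations for 48 h, and endpoints were estimated by linear interpolation. TGI: total growth inhibition.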

How the values were obtained:
Assay in all cases: DTP human tumour cell line panel, 48 h
A549 NSCLC = tested on: A549 NSCLC
ACHN renal = tested on: ACHN renal
BT-549 breast = tested on: BT-549 breast
CAKI-1 renal = tested on: CAKI-1 renal
CCRF-CEM leukemia = tested on: CCRF-CEM leukemia
COLO 205 colon = tested on: COLO 205 colon
DU-145 prostate = tested on: DU-145 prostate
EKVX NSCLC = tested on: EKVX NSCLC
HCC-2998 colon = tested on: HCC-2998 colon
HCT-116 colon = tested on: HCT-116 colon
HOP-62 NSCLC = tested on: HOP-62 NSCLC
HOP-92 NSCLC = tested on: HOP-92 NSCLC
HT29 colon = tested on: HT29 colon
IGROV1 ovarian = tested on: IGROV1 ovarian
K-562 leukemia = tested on: K-562 leukemia
LOX IMVI melanoma = tested on: LOX IMVI melanoma
M14 melanoma = tested on: M14 melanoma
MCF7 breast = tested on: MCF7 breast
MDA-MB-231 breast = tested on: MDA-MB-231 breast
MDA-MB-435 = tested on: MDA-MB-435
MDA-N = tested on: MDA-N
MOLT-4 leukemia = tested on: MOLT-4 leukemia
NCI-H226 lung = tested on: NCI-H226 lung
NCI-H23 lung = tested on: NCI-H23 lung
NCI-H460 lung = tested on: NCI-H460 lung
NCI/ADR-RES ovarian = tested on: NCI/ADR-RES ovarian
OVCAR-3 ovarian = tested on: OVCAR-3 ovarian
OVCAR-4 ovarian = tested on: OVCAR-4 ovarian
OVCAR-5 ovarian = tested on: OVCAR-5 ovarian
OVCAR-8 ovarian = tested on: OVCAR-8 ovarian
PC-3 prostate = tested on: PC-3 prostate
RPMI-8226 leukemia = tested on: RPMI-8226 leukemia
RXF 393 renal = tested on: RXF 393 renal
SF-295 CNS = tested on: SF-295 CNS
SF-539 CNS = tested on: SF-539 CNS
SK-MEL-2 melanoma = tested on: SK-MEL-2 melanoma
SK-MEL-28 melanoma = tested on: SK-MEL-28 melanoma
SK-MEL-5 melanoma = tested on: SK-MEL-5 melanoma
SK-OV-3 ovarian = tested on: SK-OV-3 ovarian
SN12C renal = tested on: SN12C renal
SNB-19 CNS = tested on: SNB-19 CNS
SNB-75 CNS = tested on: SNB-75 CNS
SW-620 colon = tested on: SW-620 colon
T-47D breast = tested on: T-47D breast
TK-10 renal = tested on: TK-10 renal
U251 CNS = tested on: U251 CNS
UACC-257 melanoma = tested on: UACC-257 melanoma
UACC-62 melanoma = tested on: UACC-62 melanoma
UO-31 renal = tested on: UO-31 renal
786-0 renal = tested on: 786-0 renal
A498 renal = tested on: A498 renal
HCT-15 colon = tested on: HCT-15 colon
HL-60(TB) leukemia = tested on: HL-60(TB) leukemia
SR leukemia = tested on: SR leukemia
HS 578T breast = tested on: HS 578T breast
KM12 colon = tested on: KM12 colon
MALME-3M melanoma = tested on: MALME-3M melanoma
NCI-H522 lung = tested on: NCI-H522 lung
SF-268 CNS = tested on: SF-268 CNS

CC/C=C(\C(=C/CC)[N+](=O)[O-])[N+](=O)[O-]
TGI (A549 NSCLC): > 100 µM
TGI (ACHN renal): 33.2 µM
TGI (BT-549 breast): 32.2 µM
TGI (CAKI-1 renal): 37.8 µM
TGI (CCRF-CEM leukemia): 42.4 µM
TGI (COLO 205 colon): 37 µM
TGI (DU-145 prostate): 45.7 µM
TGI (EKVX NSCLC): 29.8 µM
TGI (HCC-2998 colon): 34.4 µM
TGI (HCT-116 colon): 35.1 µM
TGI (HOP-62 NSCLC): > 100 µM
TGI (HOP-92 NSCLC): 45.1 µM
TGI (HT29 colon): 31.9 µM
TGI (IGROV1 ovarian): 35.9 µM
TGI (K-562 leukemia): 71.3 µM
TGI (LOX IMVI melanoma): 32.2 µM
TGI (M14 melanoma): 27 µM
TGI (MCF7 breast): 38.1 µM
TGI (MDA-MB-231 breast): 36.2 µM
TGI (MDA-MB-435): 31.6 µM
TGI (MDA-N): 43 µM
TGI (MOLT-4 leukemia): 64.9 µM
TGI (NCI-H226 lung): > 100 µM
TGI (NCI-H23 lung): 34.3 µM
TGI (NCI-H460 lung): 35.5 µM
TGI (NCI/ADR-RES ovarian): 52.7 µM
TGI (OVCAR-3 ovarian): 30.5 µM
TGI (OVCAR-4 ovarian): 45.7 µM
TGI (OVCAR-5 ovarian): 27.2 µM
TGI (OVCAR-8 ovarian): 39 µM
TGI (PC-3 prostate): > 100 µM
TGI (RPMI-8226 leukemia): 47.6 µM
TGI (RXF 393 renal): 31 µM
TGI (SF-295 CNS): > 100 µM
TGI (SF-539 CNS): 40.3 µM
TGI (SK-MEL-2 melanoma): > 100 µM
TGI (SK-MEL-28 melanoma): 37.1 µM
TGI (SK-MEL-5 melanoma): 47.9 µM
TGI (SK-OV-3 ovarian): > 100 µM
TGI (SN12C renal): 35.2 µM
TGI (SNB-19 CNS): > 100 µM
TGI (SNB-75 CNS): > 100 µM
TGI (SW-620 colon): 32 µM
TGI (T-47D breast): 55.6 µM
TGI (TK-10 renal): 33.7 µM
TGI (U251 CNS): 34.3 µM
TGI (UACC-257 melanoma): 32.1 µM
TGI (UACC-62 melanoma): 33.6 µM
TGI (UO-31 renal): 33 µM

Nc1nc2c(c(=O)[nH]1)C(c1ccc(Cl)cc1)C=C(c1ccccc1)N2 (centres undefined)
TGI (786-0 renal): 74.5 µM
TGI (A498 renal): > 100 µM
TGI (A549 NSCLC): > 100 µM
TGI (ACHN renal): > 100 µM
TGI (BT-549 breast): > 100 µM
TGI (CAKI-1 renal): > 100 µM
TGI (CCRF-CEM leukemia): 93.4 µM
TGI (COLO 205 colon): 45.6 µM
TGI (DU-145 prostate): > 100 µM
TGI (HCC-2998 colon): 34.2 µM
TGI (HCT-116 colon): 41.8 µM
TGI (HCT-15 colon): > 100 µM
TGI (HL-60(TB) leukemia): > 100 µM
TGI (HOP-92 NSCLC): 54.7 µM
TGI (K-562 leukemia): 60 µM
TGI (LOX IMVI melanoma): > 100 µM
TGI (MDA-MB-231 breast): 43.6 µM
TGI (MDA-MB-435): 41.8 µM
TGI (MDA-N): 47.7 µM
TGI (NCI-H23 lung): 59.1 µM
TGI (NCI-H460 lung): 71.7 µM
TGI (OVCAR-4 ovarian): > 100 µM
TGI (RPMI-8226 leukemia): 39.3 µM
TGI (RXF 393 renal): > 100 µM
TGI (SF-295 CNS): > 100 µM
TGI (SK-MEL-28 melanoma): 60.6 µM
TGI (SK-MEL-5 melanoma): 55.8 µM
TGI (SK-OV-3 ovarian): 54.9 µM
TGI (SN12C renal): 46.6 µM
TGI (SNB-19 CNS): > 100 µM
TGI (SR leukemia): 51.8 µM
TGI (SW-620 colon): 61.9 µM
TGI (T-47D breast): 72.7 µM
TGI (TK-10 renal): > 100 µM
TGI (U251 CNS): 39.4 µM
TGI (UACC-257 melanoma): > 100 µM
TGI (UACC-62 melanoma): 78.3 µM
TGI (UO-31 renal): > 100 µM

Clc1ccc(C(SCc2ccccc2)SCc2ccccc2)cc1
TGI (786-0 renal): > 10 µM
TGI (A498 renal): > 10 µM
TGI (A549 NSCLC): > 10 µM
TGI (ACHN renal): > 10 µM
TGI (CAKI-1 renal): > 10 µM
TGI (CCRF-CEM leukemia): > 10 µM
TGI (COLO 205 colon): > 10 µM
TGI (DU-145 prostate): > 10 µM
TGI (EKVX NSCLC): > 10 µM
TGI (HCC-2998 colon): > 10 µM
TGI (HCT-116 colon): > 10 µM
TGI (HCT-15 colon): > 10 µM
TGI (HL-60(TB) leukemia): > 10 µM
TGI (HOP-62 NSCLC): > 10 µM
TGI (HOP-92 NSCLC): > 10 µM
TGI (HS 578T breast): > 10 µM
TGI (HT29 colon): > 10 µM
TGI (IGROV1 ovarian): > 10 µM
TGI (K-562 leukemia): > 10 µM
TGI (KM12 colon): > 10 µM
TGI (LOX IMVI melanoma): > 10 µM
TGI (M14 melanoma): > 10 µM
TGI (MALME-3M melanoma): > 10 µM
TGI (MCF7 breast): > 10 µM
TGI (MDA-MB-231 breast): > 10 µM
TGI (MDA-N): > 10 µM
TGI (MOLT-4 leukemia): > 10 µM
TGI (NCI-H226 lung): > 10 µM
TGI (NCI-H23 lung): > 10 µM
TGI (NCI-H460 lung): > 10 µM
TGI (NCI-H522 lung): > 10 µM
TGI (NCI/ADR-RES ovarian): > 10 µM
TGI (OVCAR-3 ovarian): > 10 µM
TGI (OVCAR-4 ovarian): > 10 µM
TGI (OVCAR-8 ovarian): > 10 µM
TGI (PC-3 prostate): > 10 µM
TGI (RPMI-8226 leukemia): > 10 µM
TGI (RXF 393 renal): > 10 µM
TGI (SF-268 CNS): > 10 µM
TGI (SF-295 CNS): > 10 µM
TGI (SF-539 CNS): > 10 µM
TGI (SK-MEL-2 melanoma): > 10 µM
TGI (SK-MEL-28 melanoma): > 10 µM
TGI (SK-MEL-5 melanoma): > 10 µM
TGI (SK-OV-3 ovarian): > 10 µM
TGI (SN12C renal): > 10 µM
TGI (SNB-19 CNS): > 10 µM
TGI (SNB-75 CNS): > 10 µM
TGI (SR leukemia): > 10 µM
TGI (SW-620 colon): > 10 µM
TGI (T-47D breast): > 10 µM
TGI (TK-10 renal): > 10 µM
TGI (U251 CNS): > 10 µM
TGI (UACC-257 melanoma): > 10 µM
TGI (UACC-62 melanoma): > 10 µM
TGI (UO-31 renal): > 10 µM

Oc1ccc(Cl)cc1CN1CCN(Cc2cc(Cl)ccc2O)C1
TGI (786-0 renal): 5.93 µM
TGI (A498 renal): 29.4 µM
TGI (A549 NSCLC): 9.85 µM
TGI (ACHN renal): 4.25 µM
TGI (CAKI-1 renal): 6.48 µM
TGI (CCRF-CEM leukemia): > 100 µM
TGI (COLO 205 colon): 5.15 µM
TGI (DU-145 prostate): 11.6 µM
TGI (EKVX NSCLC): 6.09 µM
TGI (HCC-2998 colon): 2.97 µM
TGI (HCT-116 colon): 1.34 µM
TGI (HL-60(TB) leukemia): 7.41 µM
TGI (HOP-62 NSCLC): 2.79 µM
TGI (HOP-92 NSCLC): 5.15 µM
TGI (HS 578T breast): 8.99 µM
TGI (HT29 colon): 13 µM
TGI (IGROV1 ovarian): 6.47 µM
TGI (K-562 leukemia): 5.86 µM
TGI (KM12 colon): 3.49 µM
TGI (LOX IMVI melanoma): 4.07 µM
TGI (M14 melanoma): 2.87 µM
TGI (MALME-3M melanoma): 8.29 µM
TGI (MCF7 breast): 24.1 µM
TGI (MDA-MB-231 breast): 10.2 µM
TGI (MDA-MB-435): 7.92 µM
TGI (MDA-N): 6.43 µM
TGI (MOLT-4 leukemia): 12 µM
TGI (NCI-H226 lung): 4.66 µM
TGI (NCI-H23 lung): 5.53 µM
TGI (NCI-H460 lung): 4.96 µM
TGI (NCI-H522 lung): 13.2 µM
TGI (NCI/ADR-RES ovarian): 1.1 µM
TGI (OVCAR-3 ovarian): 11.8 µM
TGI (OVCAR-4 ovarian): 17 µM
TGI (OVCAR-5 ovarian): 16.9 µM
TGI (OVCAR-8 ovarian): 2.21 µM
TGI (PC-3 prostate): 6.69 µM
TGI (RPMI-8226 leukemia): 15.3 µM
TGI (RXF 393 renal): 4.14 µM
TGI (SF-268 CNS): 12.8 µM
TGI (SF-295 CNS): 7.73 µM
TGI (SF-539 CNS): 2.81 µM
TGI (SK-MEL-2 melanoma): 4.45 µM
TGI (SK-MEL-28 melanoma): 6.78 µM
TGI (SK-MEL-5 melanoma): 2.22 µM
TGI (SK-OV-3 ovarian): 13.3 µM
TGI (SN12C renal): 5.19 µM
TGI (SNB-19 CNS): 12.2 µM
TGI (SNB-75 CNS): 7.59 µM
TGI (SW-620 colon): 10.5 µM
TGI (T-47D breast): 10.9 µM
TGI (TK-10 renal): 9.69 µM
TGI (U251 CNS): 15 µM
TGI (UACC-257 melanoma): 5.48 µM
TGI (UACC-62 melanoma): 3.94 µM
TGI (UO-31 renal): 2.19 µM
